Reference: patent US12590099B2, “Inhibitors of histone deacetylase useful for the treatment or prevention of HIV infection” (Merck Sharp & Dohme LLC, priority 2018, dated 2026)
pIC50: −log10 of the molar value.

What follows are compounds tested against T1, Recombinant human HDAC8 (Homo sapiens, UniProt Q9BY41) (assay: Human HDAC enzyme inhibitor Fluor-de-Lys assay, HDAC8). Details: recombinant human HDAC8, Fluor-de-Lys assay.
T1 construct: purchased Enzo Life Sciences BML-SE145-0100
T1 sequence (Q9BY41 1-377): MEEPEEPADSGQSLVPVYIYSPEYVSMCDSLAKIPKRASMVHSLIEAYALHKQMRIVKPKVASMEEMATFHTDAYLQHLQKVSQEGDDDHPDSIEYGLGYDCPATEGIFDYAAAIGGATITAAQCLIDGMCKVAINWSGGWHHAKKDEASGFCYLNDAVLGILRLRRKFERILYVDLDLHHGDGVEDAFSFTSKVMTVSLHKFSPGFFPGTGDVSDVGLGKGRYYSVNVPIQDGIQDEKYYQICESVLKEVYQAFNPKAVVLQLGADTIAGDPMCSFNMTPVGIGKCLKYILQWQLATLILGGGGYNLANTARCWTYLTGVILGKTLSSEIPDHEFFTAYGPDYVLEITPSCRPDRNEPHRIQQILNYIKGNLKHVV
Format: biochemical

Row | Compound | pIC50
1 | CCC(=O)CCCCC[C@H](NC(=O)[C@@H]1CC12CN(C)C2)c1ncc(-c2cc3ccc(C)nc3cc2OC)o1 (single isomer, unassigned) [Compound 231] | < 6.05
2 | CCC(=O)CCCCC[C@H](NC(=O)C1CC12CCNCC2)c1nnc(-c2cc3ccccc3nc2OC)o1 (stereo partly drawn) [Compound 303] | 4.53
3 | CCC(=O)CCCCCC(NC(=O)C1CCC2(CC1)OC(=O)c1cnccc12)c1nnc(-c2cc3ccccc3nc2OC)o1 (stereo not drawn) [Compound 364] | 4.49
4 | CCC(=O)CCCCCC(NC(=O)C1CCC2(CC1)OC(=O)c1ccncc12)c1nnc(-c2cc3ccccc3nc2OC)o1 (stereo not drawn) [Compound 363] | 4.59
5 | CCC(=O)CCCCC[C@H](NC(=O)C1=NOC2(CCN(C)CC2)C1)c1ncc(-c2cc3cccnc3cc2OC)o1 [Compound 223] | < 6.05
6 | CCC(=O)CCCCC[C@H](NC(=O)[C@H]1CC12CN(C)C2)c1ncc(-c2cc3ccc(C)nc3cc2OC)o1 (single isomer, unassigned) [Compound 230] | < 6.05
7 | CCC(=O)CCCCC[C@H](NC(=O)CC1CC2(C1)CN(C(C)C)C2)c1ncc(-c2cc3ccccc3nc2OC)[nH]1 [Compound 273] | 5.71
8 | CCC(=O)CCCCC[C@H](NC(=O)C1=NOC2(CCN(C)CC2)C1)c1ncc(-c2cc3ccc(C)nc3cc2F)[nH]1 [Compound 232] | < 6.05
9 | CCC(=O)CCCCC[C@H](NC(=O)[C@H]1CC12CCN(C)CC2)c1ncc(-c2cnc3c(c2)ncn3C)[nH]1 [Compound 256] | 5.96
10 | CCC(=O)CCCCC[C@H](NC(=O)C1=NOC2(CCN(CC)CC2)C1)c1ncc(-c2cc3ccc(=O)n(C)c3cc2OC)o1 [Compound 235] | < 6.05
11 | CCC(=O)CCCCC[C@H](NC(=O)CC1CC2(CNC2)C1)c1ncc(-c2ccccc2)[nH]1 [Compound 297] | 5.07
12 | CCC(=O)CCCCC[C@H](NC(=O)[C@H]1CC12CCN(C)CC2)c1ncc(-c2cnc(OC)nc2)[nH]1 [Compound 255] | 5.24

These compounds were tested against T2, HDAC6 (Homo sapiens, UniProt Q9UBN7) (assay: Human HDAC enzyme inhibitor Fluor-de-Lys assay, HDAC6). Details: HDAC6, Fluor-de-Lys assay.
T2 sequence (Q9UBN7 1-1215): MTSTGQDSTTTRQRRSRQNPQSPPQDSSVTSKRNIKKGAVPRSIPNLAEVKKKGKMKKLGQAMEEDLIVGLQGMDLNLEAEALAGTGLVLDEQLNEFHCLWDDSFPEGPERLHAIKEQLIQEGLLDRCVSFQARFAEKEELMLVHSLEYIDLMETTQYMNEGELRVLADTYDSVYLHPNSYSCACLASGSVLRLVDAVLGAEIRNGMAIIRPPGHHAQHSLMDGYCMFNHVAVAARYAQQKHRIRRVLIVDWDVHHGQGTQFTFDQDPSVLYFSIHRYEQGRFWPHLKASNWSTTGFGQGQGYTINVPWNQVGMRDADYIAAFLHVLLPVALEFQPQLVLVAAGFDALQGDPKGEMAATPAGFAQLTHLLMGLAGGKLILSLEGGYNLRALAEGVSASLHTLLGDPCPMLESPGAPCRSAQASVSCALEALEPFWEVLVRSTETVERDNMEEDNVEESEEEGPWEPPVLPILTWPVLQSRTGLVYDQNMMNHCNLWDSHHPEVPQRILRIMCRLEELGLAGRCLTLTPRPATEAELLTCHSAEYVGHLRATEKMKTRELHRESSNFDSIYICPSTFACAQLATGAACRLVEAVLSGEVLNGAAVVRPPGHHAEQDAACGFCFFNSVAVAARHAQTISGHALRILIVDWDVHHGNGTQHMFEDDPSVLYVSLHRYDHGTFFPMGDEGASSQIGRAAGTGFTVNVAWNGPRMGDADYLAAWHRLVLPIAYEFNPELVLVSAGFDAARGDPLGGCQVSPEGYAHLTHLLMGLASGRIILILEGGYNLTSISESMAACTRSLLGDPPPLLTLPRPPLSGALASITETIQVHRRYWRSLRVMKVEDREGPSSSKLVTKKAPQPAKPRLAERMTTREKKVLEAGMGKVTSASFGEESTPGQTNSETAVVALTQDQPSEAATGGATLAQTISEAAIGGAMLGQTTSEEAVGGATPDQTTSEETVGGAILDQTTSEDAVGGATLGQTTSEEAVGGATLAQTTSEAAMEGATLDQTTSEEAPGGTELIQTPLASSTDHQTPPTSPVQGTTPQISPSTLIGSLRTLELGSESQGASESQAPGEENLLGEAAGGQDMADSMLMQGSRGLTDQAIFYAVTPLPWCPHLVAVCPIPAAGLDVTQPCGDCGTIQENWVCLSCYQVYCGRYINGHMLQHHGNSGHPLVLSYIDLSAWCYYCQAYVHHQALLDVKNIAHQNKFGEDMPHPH
Format: biochemical

Row | Compound | pIC50
13 | CCC(=O)CCCCC[C@H](NC(=O)[C@@H]1CC12CN(C)C2)c1ncc(-c2cc3ccc(C)nc3cc2OC)o1 (single isomer, unassigned) [Compound 231] | 6.66
14 | CCC(=O)CCCCC[C@H](NC(=O)C1CC12CCNCC2)c1nnc(-c2cc3ccccc3nc2OC)o1 (stereo partly drawn) [Compound 303] | 6.01
15 | CCC(=O)CCCCCC(NC(=O)C1CCC2(CC1)OC(=O)c1cnccc12)c1nnc(-c2cc3ccccc3nc2OC)o1 (stereo not drawn) [Compound 364] | 5.70
16 | CCC(=O)CCCCCC(NC(=O)C1CCC2(CC1)OC(=O)c1ccncc12)c1nnc(-c2cc3ccccc3nc2OC)o1 (stereo not drawn) [Compound 363] | 5.69
17 | CCC(=O)CCCCC[C@H](NC(=O)C1=NOC2(CCN(C)CC2)C1)c1ncc(-c2cc3cccnc3cc2OC)o1 [Compound 223] | 6.63
18 | CCC(=O)CCCCC[C@H](NC(=O)[C@H]1CC12CN(C)C2)c1ncc(-c2cc3ccc(C)nc3cc2OC)o1 (single isomer, unassigned) [Compound 230] | 6.40
19 | CCC(=O)CCCCC[C@H](NC(=O)CC1CC2(C1)CN(C(C)C)C2)c1ncc(-c2cc3ccccc3nc2OC)[nH]1 [Compound 273] | 6.40
20 | CCC(=O)CCCCC[C@H](NC(=O)C1=NOC2(CCN(C)CC2)C1)c1ncc(-c2cc3ccc(C)nc3cc2F)[nH]1 [Compound 232] | < 6.05
21 | CCC(=O)CCCCC[C@H](NC(=O)[C@H]1CC12CCN(C)CC2)c1ncc(-c2cnc3c(c2)ncn3C)[nH]1 [Compound 256] | 5.41
22 | CCC(=O)CCCCC[C@H](NC(=O)C1=NOC2(CCN(CC)CC2)C1)c1ncc(-c2cc3ccc(=O)n(C)c3cc2OC)o1 [Compound 235] | < 6.05
23 | CCC(=O)CCCCC[C@H](NC(=O)CC1CC2(CNC2)C1)c1ncc(-c2ccccc2)[nH]1 [Compound 297] | 5.09
24 | CCC(=O)CCCCC[C@H](NC(=O)[C@H]1CC12CCN(C)CC2)c1ncc(-c2cnc(OC)nc2)[nH]1 [Compound 255] | 4.92

The compounds below were run against T3, Recombinant human HDAC2 (Homo sapiens, UniProt Q92769) (assay: Human HDAC enzyme inhibitor Fluor-de-Lys assay, HDAC2). Details: recombinant human HDAC2, Fluor-de-Lys assay.
T3 construct: Full length human HDAC2-FLAG was expressed in baculovirus infected Sf9 cells; FLAG (C); made in house; host or cells: Sf9 (baculovirus)
T3 sequence (Q92769 whole entry): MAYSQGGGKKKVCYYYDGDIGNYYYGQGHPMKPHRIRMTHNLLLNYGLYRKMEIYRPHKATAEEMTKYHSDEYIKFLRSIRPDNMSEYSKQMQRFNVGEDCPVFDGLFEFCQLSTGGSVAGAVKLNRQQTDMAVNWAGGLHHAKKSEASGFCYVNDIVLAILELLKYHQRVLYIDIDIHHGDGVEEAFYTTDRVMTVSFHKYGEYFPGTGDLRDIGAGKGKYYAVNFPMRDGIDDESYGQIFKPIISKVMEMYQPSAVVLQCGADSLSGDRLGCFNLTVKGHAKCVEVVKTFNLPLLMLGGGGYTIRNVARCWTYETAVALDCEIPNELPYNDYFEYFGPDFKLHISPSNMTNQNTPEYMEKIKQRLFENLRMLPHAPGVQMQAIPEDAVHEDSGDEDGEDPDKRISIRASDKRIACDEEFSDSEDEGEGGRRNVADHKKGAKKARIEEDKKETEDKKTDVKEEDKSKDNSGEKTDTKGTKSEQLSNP
Format: biochemical
Summary of the method: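 Fluor-de-Lys format at room temperature (23° C.): compounds titrated 10-point, 1:3, preincubated with HDAC before substrate addition. Developer with excess HDAC inhibitor ends the reaction, and trypsin-liberated AMC fluorescence is the read-out.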

Row | Compound | pIC50
25 | CCC(=O)CCCCC[C@H](NC(=O)[C@@H]1CC12CN(C)C2)c1ncc(-c2cc3ccc(C)nc3cc2OC)o1 (single isomer, unassigned) [Compound 231] | 7.72
26 | CCC(=O)CCCCC[C@H](NC(=O)C1CC12CCNCC2)c1nnc(-c2cc3ccccc3nc2OC)o1 (stereo partly drawn) [Compound 303] | 7.39
27 | CCC(=O)CCCCCC(NC(=O)C1CCC2(CC1)OC(=O)c1cnccc12)c1nnc(-c2cc3ccccc3nc2OC)o1 (stereo not drawn) [Compound 364] | 6.61
28 | CCC(=O)CCCCCC(NC(=O)C1CCC2(CC1)OC(=O)c1ccncc12)c1nnc(-c2cc3ccccc3nc2OC)o1 (stereo not drawn) [Compound 363] | 6.63
29 | CCC(=O)CCCCC[C@H](NC(=O)C1=NOC2(CCN(C)CC2)C1)c1ncc(-c2cc3cccnc3cc2OC)o1 [Compound 223] | 8.01
30 | CCC(=O)CCCCC[C@H](NC(=O)[C@H]1CC12CN(C)C2)c1ncc(-c2cc3ccc(C)nc3cc2OC)o1 (single isomer, unassigned) [Compound 230] | 8.57
31 | CCC(=O)CCCCC[C@H](NC(=O)CC1CC2(C1)CN(C(C)C)C2)c1ncc(-c2cc3ccccc3nc2OC)[nH]1 [Compound 273] | 8.47
32 | CCC(=O)CCCCC[C@H](NC(=O)C1=NOC2(CCN(C)CC2)C1)c1ncc(-c2cc3ccc(C)nc3cc2F)[nH]1 [Compound 232] | 7.67
33 | CCC(=O)CCCCC[C@H](NC(=O)[C@H]1CC12CCN(C)CC2)c1ncc(-c2cnc3c(c2)ncn3C)[nH]1 [Compound 256] | 6.55
34 | CCC(=O)CCCCC[C@H](NC(=O)C1=NOC2(CCN(CC)CC2)C1)c1ncc(-c2cc3ccc(=O)n(C)c3cc2OC)o1 [Compound 235] | 7.91
35 | CCC(=O)CCCCC[C@H](NC(=O)CC1CC2(CNC2)C1)c1ncc(-c2ccccc2)[nH]1 [Compound 297] | 6.92
36 | CCC(=O)CCCCC[C@H](NC(=O)[C@H]1CC12CCN(C)CC2)c1ncc(-c2cnc(OC)nc2)[nH]1 [Compound 255] | 6.31

What follows are compounds tested against T4, Recombinant human HDAC1 (Homo sapiens, UniProt Q13547) (assay: Human HDAC enzyme inhibitor Fluor-de-Lys assay, HDAC1). Details: recombinant human HDAC1, Fluor-de-Lys assay.
T4 construct: FLAG (C); made in house
T4 sequence (Q13547 whole entry): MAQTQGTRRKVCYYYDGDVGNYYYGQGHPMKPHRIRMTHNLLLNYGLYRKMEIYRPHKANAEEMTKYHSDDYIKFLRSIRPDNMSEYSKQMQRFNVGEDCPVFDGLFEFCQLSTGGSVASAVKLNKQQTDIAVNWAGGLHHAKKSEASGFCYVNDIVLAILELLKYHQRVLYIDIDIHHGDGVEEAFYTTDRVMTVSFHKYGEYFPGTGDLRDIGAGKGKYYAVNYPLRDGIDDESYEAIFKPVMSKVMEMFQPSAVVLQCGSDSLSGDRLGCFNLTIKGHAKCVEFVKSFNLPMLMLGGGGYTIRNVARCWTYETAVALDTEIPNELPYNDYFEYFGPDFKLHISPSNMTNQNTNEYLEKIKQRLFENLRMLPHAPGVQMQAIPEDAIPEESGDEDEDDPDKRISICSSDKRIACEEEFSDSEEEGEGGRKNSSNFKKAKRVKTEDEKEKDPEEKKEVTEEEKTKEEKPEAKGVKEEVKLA
Format: biochemical
Summary of the method: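 Fluor-de-Lys format at room temperature (23° C.): compounds titrated 10-point, 1:3, preincubated with HDAC before substrate addition; HDAC1 run at 0.3 nM enzyme with 20 μM BML-KI104. Developer with excess HDAC inhibitor ends the reaction, and trypsin-liberated AMC fluorescence is the read-out.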

Row | Compound | pIC50
37 | CCC(=O)CCCCC[C@H](NC(=O)[C@@H]1CC12CN(C)C2)c1ncc(-c2cc3ccc(C)nc3cc2OC)o1 (single isomer, unassigned) [Compound 231] | 8.90
38 | CCC(=O)CCCCC[C@H](NC(=O)C1CC12CCNCC2)c1nnc(-c2cc3ccccc3nc2OC)o1 (stereo partly drawn) [Compound 303] | 7.76
39 | CCC(=O)CCCCCC(NC(=O)C1CCC2(CC1)OC(=O)c1cnccc12)c1nnc(-c2cc3ccccc3nc2OC)o1 (stereo not drawn) [Compound 364] | 7.20
40 | CCC(=O)CCCCCC(NC(=O)C1CCC2(CC1)OC(=O)c1ccncc12)c1nnc(-c2cc3ccccc3nc2OC)o1 (stereo not drawn) [Compound 363] | 7.07
41 | CCC(=O)CCCCC[C@H](NC(=O)C1=NOC2(CCN(C)CC2)C1)c1ncc(-c2cc3cccnc3cc2OC)o1 [Compound 223] | 8.81
42 | CCC(=O)CCCCC[C@H](NC(=O)[C@H]1CC12CN(C)C2)c1ncc(-c2cc3ccc(C)nc3cc2OC)o1 (single isomer, unassigned) [Compound 230] | 9.40
43 | CCC(=O)CCCCC[C@H](NC(=O)CC1CC2(C1)CN(C(C)C)C2)c1ncc(-c2cc3ccccc3nc2OC)[nH]1 [Compound 273] | > 8.82
44 | CCC(=O)CCCCC[C@H](NC(=O)C1=NOC2(CCN(C)CC2)C1)c1ncc(-c2cc3ccc(C)nc3cc2F)[nH]1 [Compound 232] | 8.88
45 | CCC(=O)CCCCC[C@H](NC(=O)[C@H]1CC12CCN(C)CC2)c1ncc(-c2cnc3c(c2)ncn3C)[nH]1 [Compound 256] | 7.13
46 | CCC(=O)CCCCC[C@H](NC(=O)C1=NOC2(CCN(CC)CC2)C1)c1ncc(-c2cc3ccc(=O)n(C)c3cc2OC)o1 [Compound 235] | 9.15
47 | CCC(=O)CCCCC[C@H](NC(=O)CC1CC2(CNC2)C1)c1ncc(-c2ccccc2)[nH]1 [Compound 297] | 7.55
48 | CCC(=O)CCCCC[C@H](NC(=O)[C@H]1CC12CCN(C)CC2)c1ncc(-c2cnc(OC)nc2)[nH]1 [Compound 255] | 6.77
